Data published in US7655629B2, “Peptides and their use for the treatment of HIV infections” (priority 2002, dated 2010).
Several values for one entry are separate records, joined by “and”; a condition that tells them apart may be missing. Equal values may be shown once. Entries after “also recorded” stand apart in the source; their conditions may differ. Read-outs that look alike come from different tables or passages of the source. Positions of bridges follow the written chain, without caps; N, C: chain ends. Non-standard residues stand in square brackets, D forms with d. Residues, ends and D or L forms follow the SMILES beside them. No end group written: not given here. ξ: configuration not given here. Oic(3aξ,7aξ) = O=C(O)[C@@H]1CC2CCCCC2N1; NMeL = CN[C@@H](CC(C)C)C(=O)O

Experiments:
[1] = rat, plasma
Method: (§2) Plasma was spiked resulting in concentrations of 40 μg/ml and stored at 37° C. At time points 0, 15, 30, 45, 60, 120, 180, 240 and 300 min samples of 20 μl were taken. The plasma was immediately mixed for precipitation with the two-fold volume of acetonitrile containing 0.15% (w/v) n-nonyl-β-D-glucopyranoside. Following centrifugation the supernatants were mixed with the two-fold volume of 0.1% (v/v) trifluroacetic acid. Twenty μl of these solutions were analyzed by LC-MS. Chromatography was performed using a gradient with the following eluents: eluent A: water containing 0.06% trifluroacetic acid (v/v), eluent B: acetonitrile/water 80:20 (v/v; with 0.05% trifluoroacetic acid; v/v). A C18 precolumn was used in combination with a C18 separation column (300 Å, 5 μm, 150×1 mm inner diameter) at a flow rate of 30 μl/min. HPLC eluates were ionized by the electrospray technique of a LCQ classic mass spectrometer. Areas of the detected peaks of the peptides of the present invention were measured and used for quantification by external calibration. The calibration curve was linear over a range from 0.5 μg/ml to 250 μg/ml plasma. Half life—defined as the period for a concentration decrease to 50% of the initial concentration—was calculated from the slope of an extrapolated curve plotting the relative peptide concentration at a given time point (logarithm scale) against the incubation time. These experiments allowed the quantitative analysis of peptide concentration in plasma.

[2] = dog, plasma
Method: as §2

[3] = human, plasma
Method: as §2

HIV-1 NL4-3 DTV = details: read-out: IC50 DTV, P4-CCR5 cells, peptide 2 h before infection, readout three days after infection
Summary of the method: (§1)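 P4-CCR5 cells (CD4, CCR5, CXCR4, HIV-1 promoter-driven β-galactosidase) pretreated 2 h with peptide, then infected with virus containing 1 ng p24 antigen and incubated overnight. Cells washed and cultured without peptide; three days post-infection infectivity read by chemiluminescent β-galactosidase assay, in quintuplicate.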

X4-tropic HIV-1 NL4-3 = details: read-out: IC50 NL4-3; P4-CCR5 cells, HIV-1 NL4-3, peptide 2 h before infection, readout three days after infection
Summary of the method: as §1

[4] = molecular target: T1, synthetic fusion peptide of HIV gp41 (Human immunodeficiency virus type 1 group M subtype B, UniProt P04578); experiment: Inhibition of fusion peptide-induced hemolysis; format: cell-based; details: peptides at 1000, 100 and 10 μM preincubated with 100 μM fusion peptide, human erythrocytes, hemoglobin release
T1 construct: The fusion peptide is the very amino-terminal part of gp41 consisting of about 30 amino acid residues
Method: The synthetic fusion peptide of HIV gp41 causes concentration-dependent hemolysis which can be measured by hemoglobin released by erythrocytes.
Peptides and any other substance binding to the fusion peptide impair its potency to lyse erythrocytes by changing its structural properties. The inhibition of fusion peptide induced hemolysis was tested as follows: Blood from healthy donors was collected in citrate monovettes and the erythrocytes were extracted by a standard centrifugation and washing protocol known to the skilled person. The final erythrocyte-containing pellett was diluted 1:100 with phosphate-saline buffer. To the peptides (10, 100, or 1000 equivalents) 20 μl of a 100 μM fusion peptide solution in 10% DMSO were added and the solution was diluted to 100 μl with phosphate-buffered saline. A 60 min incubation at 37° C. was carried out. After the preincubation the samples were transferred to 96-well plates and 100 μl of the erythrocyte suspension were added and incubated for 60 min at 37° C. […] The 96-well plate is centrifuged 5 min at 2800 rpm and of the supernatant fluid 150 μl were transferred to a flat-bottom microtiter plate, and the absorbance was measured at 450 nm. The percentage hemolysis was calculated by: [(A450 of the peptide treated sample—A450 of buffer treated sample)/(A450 of Tween-20 treated sample—A450 of buffer treated sample)]×100%.

[5] = cynomolgus monkey, plasma
Method: as §2

[6] = test system: human monocytic THP-1 cells; experiment: Cytotoxicity on human cells, WST-1 assay; details: 24 hours, 30, 100, 300 and 1000 μg/mL
Method: The cytotoxicity of peptides of the invention was tested by evaluating the viability of human monocytic THP-1 cells. Cytotoxic effects of the peptides were tested by their influence on metabolic activity by means of the WST-1 assay (Roche Diagnostics, Germany). THP-1 cells were incubated with test peptides in a 96-well plate (approx. 25,000 cells per well) for 24 hours in RPMI-1640 medium containing 25 mM L-glutamine and 10 volume % fetal calf serum at 37° C. in an atmosphere with 5 volume % CO2. Ten μl of a WST-1 solution was added to each cavity, and incubation of THP-1 cells was allowed for 2 further hours at corresponding conditions. Metabolically active THP-1 cells reduce WST-1, a light red tetrazolium salt, yielding a soluble yellow formazan salt. The amount of reduced WST-1 correlates directly to the number of living cells, and is measured photometrically at a wavelength of λ=450 nm using a microtiter plate reader (reference wavelength is 630 nm). As a positive control, the known cytotoxic substance cycloheximide was used at a concentration of 50 μg/ml; the cytotoxicity of cycloheximide was set to 100%. […] The cytotoxicity of VIRIP peptides was calculated using the formula Viability [%]=[A450 nm (peptide)−A450 nm (cycloheximide)]/[A450 nm (negative control)−A450 nm (cycloheximide)]*100 and was correlated to the averaged viability of untreated THP-1 cells. […]

[7] = Acute toxicity in mice after a single intravenous injection; format: in vivo, SCID-C.B 17-mice; details: 927 mg per kg body weight
Method: Acute toxicity was evaluated with VIR-121 (LEAIPMSIPpEVAFNkPFVF) after a single intravenous injection into the tail vein of SCID-C.B 17-mice. A dose of 927 mg VIR-121 (SEQ ID NO. 2) dissolved in 13.6 ml 0.9 volume % sodium chloride solution per kg body weight (equivalent to 20.4 mg or 272 μL per mouse) was applied. Injection speed was dose within 15 seconds. […] As a control, 3 mice were each treated with a corresponding volume of vehicle (0.9 volume % NaCl). After 24 hours, the animals were sacrificed, dissected and inspected macroscopically. […] No findings were obtained from macroscopic necropsy compared to the control group.

[8] = molecular target: gp41 of HIV-1 NL4-3 (HIV-1 NL4-3); experiment: cell-based or functional assay
[9] = molecular target: gp41 of HIV-1 NL4-3 DTV (HIV-1 NL4-3 DTV); experiment: cell-based or functional assay

Molecule	IC50 (HIV-1 NL4-3 DTV)	IC50 (X4-tropic HIV-1 NL4-3)	inhibition of fusion peptide-induced hemolysis [4]	IC50 NL4-3 (HIV-1 infection of P4-CCR5 cells) [8]	IC50 DTV (HIV-1 infection of P4-CCR5 cells) [9]	also measured
H-LEAIPMSIPPEFLFGKPFVF-OH [VIR-175]	300 nM	225 nM	Dose dependent inhibition	–	–	half-life [1]: 0.2 h; half-life [2]: 17.3 h; half-life [3]: 5.3 h; half-life [5]: 3 h
CC[C@H](C)[C@H](NC(=O)[C@H](C)NC(=O)[C@H](CCC(=O)O)NC(=O)[C@@H](N)CC(C)C)C(=O)N1CCC[C@H]1C(=O)N[C@H]1CSSC[C@@H](C(=O)N[C@H](C(=O)N[C@@H](Cc2ccccc2)C(=O)N[C@@H](Cc2ccccc2)C(=O)N[C@@H](CC(N)=O)C(=O)N[C@@H](CCCCN)C(=O)N2CCC[C@H]2C(=O)N[C@@H](Cc2ccccc2)C(=O)N[C@H](C(=O)N[C@@H](Cc2ccccc2)C(=O)O)C(C)C)C(C)C)NC(=O)[C@@H]2CCCN2C(=O)[C@@H]2CCCN2C(=O)[C@H]([C@@H](C)CC)NC(=O)[C@H](CO)NC1=O [VIR-164] (H-LEAIPCSIPPCVFFNKPFVF-OH; disulfide 6-11)	370 nM	340 nM	Dose dependent inhibition	–	–	cytotoxic effect on THP-1 cells [6]: free of any cytotoxic effect; also recorded: did not exhibit a cytotoxic effect
CC[C@H](C)[C@H](NC(=O)[C@H](C)NC(=O)[C@H](CCC(=O)O)NC(=O)[C@@H](N)CC(C)C)C(=O)N1CCC[C@H]1C(=O)N[C@@H](CCSC)C(=O)N[C@@H](CO)C(=O)N[C@H](C(=O)N1CCC[C@H]1C(=O)N1CCC[C@@H]1C(=O)N[C@@H](CCC(=O)O)C(=O)N[C@H](C(=O)N[C@@H](C)C(=O)N[C@@H](Cc1ccccc1)C(=O)N[C@@H](CC(N)=O)C(=O)N[C@@H](CCCCN)C(=O)N1CCC[C@H]1C(=O)N[C@@H](Cc1ccccc1)C(=O)N[C@H](C(=O)N[C@@H](Cc1ccccc1)C(=O)O)C(C)C)C(C)C)[C@@H](C)CC [VIR-121, LEAIPMSIPpEVAFNKPFVF] (H-LEAIPMSIP[dP]EVAFNKPFVF-OH)	1790 nM	370 nM	–	–	–	changes of behaviour ([7]; 24 hours observation): No changes of behaviour; macroscopic necropsy / pathological examination ([7]; sacrificed after 24 hours): did not reveal any abnormalities; also recorded: No findings; clinical signs (motility, dyspnea, ataxia, muscle tone) ([7]; tail vein, 24 hours observation): no signs of reduced or increased motility, dyspnea, ataxia, nor a reduced or increased muscle tone
CC[C@H](C)[C@H](NC(=O)[C@H](C)NC(=O)[C@H](CCC(=O)O)NC(=O)[C@@H](N)CC(C)C)C(=O)N1CCC[C@H]1C(=O)N[C@H]1CSSC[C@@H](C(=O)N[C@@H](Cc2ccccc2)C(=O)N[C@@H](C)C(=O)N[C@@H](Cc2ccccc2)C(=O)N[C@@H](CC(N)=O)C(=O)N[C@@H](CCCCN)C(=O)N2CCC[C@H]2C(=O)N[C@@H](Cc2ccccc2)C(=O)N[C@H](C(=O)N[C@@H](Cc2ccccc2)C(=O)O)C(C)C)NC(=O)[C@@H]2CCCN2C(=O)[C@@H]2CCCN2C(=O)[C@H]([C@@H](C)CC)NC(=O)[C@H](CO)NC1=O [VIR-165]	140 nM	–	Dose dependent inhibition	–	–	cytotoxic effect on THP-1 cells [6]: free of any cytotoxic effect; also recorded: did not exhibit a cytotoxic effect
VIR-576 (peptide)	–	–	–	107 nM	296 nM	–
H-LEAIPMSIPPEVKFNKPFVF-OH [VIRIP, reference compound]	22000 nM and 22200 nM	15000 nM	Dose dependent inhibition	–	–	half-life [1]: 1.7 h; half-life [2]: 35.9 h; half-life [3]: 53.7 h; half-life [5]: 5.1 h
VIRIP (peptide)	–	–	–	15000 nM	22200 nM	–
CC[C@H](C)[C@H](NC(=O)[C@H](C)NC(=O)[C@H](CCC(=O)O)NC(=O)[C@@H](N)CC(C)C)C(=O)N1CCC[C@H]1C(=O)N[C@@H](CCSC)C(=O)N[C@@H](CO)C(=O)N[C@H](C(=O)N1CCC[C@H]1C(=O)N1CCC[C@@H]1C(=O)N[C@@H](CCC(=O)O)C(=O)N[C@H](C(=O)N[C@@H](C)C(=O)N[C@@H](Cc1ccccc1)C(=O)N[C@@H](CC(N)=O)C(=O)N[C@@H](CCCCN)C(=O)N1C2CCCCC2C[C@H]1C(=O)N[C@@H](Cc1ccccc1)C(=O)N[C@H](C(=O)N[C@@H](Cc1ccccc1)C(=O)O)C(C)C)C(C)C)[C@@H](C)CC (some centres unmarked) [VIR-269, LEAIPMSIPpEVAFNK(Oic)FVF] (H-LEAIPMSIP[dP]EVAFNK[Oic(3aξ,7aξ)]FVF-OH)	900 nM	2610 nM	Dose dependent inhibition	–	–	–
[NMeL]EAIPMSIPPEFLFGKPFVF [VIR-512]	–	–	–	138 nM	615 nM	–
